Measured values from patent publication US11236087B2, “Highly active pyrazolo-piperidine substituted indole-2-carboxamides active against the hepatitis B virus (HBV)” (AiCuris GmbH & Co. KG, priority 2017, dated 2022).

Tests used:
HBV core protein = biological target: T1, HBV core protein (UniProt P03146); experiment: Biochemical capsid assembly assay (fluorescence quenching); parameters: species or system hepatitis B virus; conditions: read-out: Assembly Activity (IC50); BODIPY-FL labelled core protein, 300 μM NaCl, read 6 min after start
T1 construct: fused on or other part: BODIPY-FL maleimide label on the C-terminal Cys150
T1 sequence (P03146 whole entry, looked up, the tested form may be a part): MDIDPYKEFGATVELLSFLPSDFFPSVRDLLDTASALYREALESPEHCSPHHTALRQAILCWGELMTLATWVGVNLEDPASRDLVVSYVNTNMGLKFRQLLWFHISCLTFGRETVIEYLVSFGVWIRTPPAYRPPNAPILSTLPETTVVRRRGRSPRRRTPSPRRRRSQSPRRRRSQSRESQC
How it was run: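 Purified E. coli-expressed HBV core protein (aa 1-149 plus Cys150), BODIPY-FL maleimide-labelled, at 1.0-2.0 μM in 50 mM HEPES pH 7.5 with 0.5% DMSO was used. Compounds were tested at 8 concentrations (0.5-log dilutions from 100, 31.6 or 10 μM). Assembly was started with NaCl ([…]), and fluorescence quenching was read after 6 min (ex 477/em 525 nm). EC50 was determined by non-linear regression.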

HBV = experiment: Determination of HBV DNA from the supernatants of HepAD38 cells (anti-HBV activity); assay type: cell-based, hepatitis B virus; conditions: Hepatitis B virus, 144 h; HBV DNA in HepAD38 supernatant, day 6, qPCR; read-out: Cell Activity (EC50)
How it was run: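 HepAD38 cells, tetracycline withdrawn to induce HBV, treated with serial half-log compound dilutions; on day 6 HBV DNA purified from filtered supernatant and quantified by real-time PCR against HBV plasmid standards; EC50 from relative copy numbers by non-linear regression, three experiments in triplicate.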

[1] = Cell viability assay (AlamarBlue) in HepAD38 cells; conditions: human

Compound | IC50 (HBV core protein) | EC50 (HBV) | CC50 at 6 days [1]
CN(C(=O)c1[nH]nc2c1CN(C(=O)c1cc3ccc(Cl)cc3[nH]1)CC2)C1CC1 [Example 325, 5-(6-chloro-1H-indole-2-carbonyl)-N-cyclopropyl-N-methyl-2H,4H,5H,6H,7H-pyrazolo[4,3-c]pyridine-3-carboxamide] | < 5 µM | < 1 µM | > 10 µM
CN(C(=O)c1[nH]nc2c1CN(C(=O)c1cc3c(Cl)cccc3[nH]1)CC2)C1CC1 [Example 326, 5-(4-chloro-1H-indole-2-carbonyl)-N-cyclopropyl-N-methyl-2H,4H,5H,6H,7H-pyrazolo[4,3-c]pyridine-3-carboxamide] | < 5 µM | < 1 µM | > 10 µM
Cc1cc(F)cc2[nH]c(C(=O)N3CCc4n[nH]c(C(=O)N(C)C5CC5)c4C3)cc12 [Example 327, N-cyclopropyl-5-(6-fluoro-4-methyl-1H-indole-2-carbonyl)-N-methyl-2H,4H,5H,6H,7H-pyrazolo[4,3-c]pyridine-3-carboxamide] | < 5 µM | < 1 µM | > 10 µM
CCc1cccc2[nH]c(C(=O)N3CCc4n[nH]c(C(=O)N(C)C5CC5)c4C3)cc12 [Example 328, N-cyclopropyl-5-(4-ethyl-1H-indole-2-carbonyl)-N-methyl-2H,4H,5H,6H,7H-pyrazolo[4,3-c]pyridine-3-carboxamide] | < 5 µM | < 1 µM | > 10 µM
CN(C(=O)c1[nH]nc2c1CN(C(=O)c1cc3cc(F)c(Cl)cc3[nH]1)CC2)C1CC1 [Example 329, 5-(6-chloro-5-fluoro-1H-indole-2-carbonyl)-N-cyclopropyl-N-methyl-2H,4H,5H,6H,7H-pyrazolo[4,3-c]pyridine-3-carboxamide] | < 5 µM | < 1 µM | > 10 µM
CCc1cc(F)cc2[nH]c(C(=O)N3CCc4n[nH]c(C(=O)N(C)C5CC5)c4C3)cc12 [Example 330, N-cyclopropyl-5-(4-ethyl-6-fluoro-1H-indole-2-carbonyl)-N-methyl-2H,4H,5H,6H,7H-pyrazolo[4,3-c]pyridine-3-carboxamide] | < 5 µM | < 1 µM | > 10 µM
CCc1cccc2[nH]c(C(=O)N3CCc4[nH]nc(C56CC(C5)C6)c4C3)cc12 [Example 331, 2-(3-{bicyclo[1.1.1]pentan-1-yl}-1H,4H,5H,6H,7H-pyrazolo[4,3-c]pyridine-5-carbonyl)-4-ethyl-1H-indole] | < 5 µM | < 1 µM | > 10 µM
O=C(c1cc2c(F)c(F)ccc2[nH]1)N1CCc2[nH]nc(C34CC(C3)C4)c2C1 [Example 332, 2-(3-{bicyclo[1.1.1]pentan-1-yl}-1H,4H,5H,6H,7H-pyrazolo[4,3-c]pyridine-5-carbonyl)-4,5-difluoro-1H-indole] | < 5 µM | < 1 µM | > 10 µM
O=C(c1cc2c(F)cc(F)cc2[nH]1)N1CCc2[nH]nc(C34CC(C3)C4)c2C1 [Example 333, 2-(3-{bicyclo[1.1.1]pentan-1-yl}-1H,4H,5H,6H,7H-pyrazolo[4,3-c]pyridine-5-carbonyl)-4,6-difluoro-1H-indole] | < 5 µM | < 1 µM | > 10 µM
CCc1cc(F)cc2[nH]c(C(=O)N3CCc4[nH]nc(C56CC(C5)C6)c4C3)cc12 [Example 334, 2-(3-{bicyclo[1.1.1]pentan-1-yl}-1H,4H,5H,6H,7H-pyrazolo[4,3-c]pyridine-5-carbonyl)-4-ethyl-6-fluoro-1H-indole] | < 5 µM | < 1 µM | > 10 µM
Cc1cc(F)cc2[nH]c(C(=O)N3CCc4[nH]nc(C56CC(C5)C6)c4C3)cc12 [Example 336, 2-(3-{bicyclo[1.1.1]pentan-1-yl}-1H,4H,5H,6H,7H-pyrazolo[4,3-c]pyridine-5-carbonyl)-6-fluoro-4-methyl-1H-indole] | < 5 µM | < 1 µM | > 10 µM
CCc1cccc2[nH]c(C(=O)N3CCc4[nH]nc(C5CCCO5)c4C3)cc12 (stereo not drawn) [Example 337, 4-ethyl-2-[3-(oxolan-2-yl)-1H,4H,5H,6H,7H-pyrazolo[4,3-c]pyridine-5-carbonyl]-1H-indole] | < 5 µM | < 1 µM | > 10 µM
O=C(c1cc2c(F)c(F)ccc2[nH]1)N1CCc2[nH]nc(C3CCCO3)c2C1 (stereo not drawn) [Example 338, 4,5-difluoro-2-[3-(oxolan-2-yl)-1H,4H,5H,6H,7H-pyrazolo[4,3-c]pyridine-5-carbonyl]-1H-indole] | < 5 µM | < 1 µM | > 10 µM
O=C(c1cc2c(F)cc(F)cc2[nH]1)N1CCc2[nH]nc(C3CCCO3)c2C1 (stereo not drawn) [Example 339, 4,6-difluoro-2-[3-(oxolan-2-yl)-1H,4H,5H,6H,7H-pyrazolo[4,3-c]pyridine-5-carbonyl]-1H-indole] | < 5 µM | < 1 µM | > 10 µM
CCc1cc(F)cc2[nH]c(C(=O)N3CCc4[nH]nc(C5CCCO5)c4C3)cc12 (stereo not drawn) [Example 340, 4-ethyl-6-fluoro-2-[3-(oxolan-2-yl)-1H,4H,5H,6H,7H-pyrazolo[4,3-c]pyridine-5-carbonyl]-1H-indole] | < 5 µM | < 1 µM | > 10 µM
O=C(c1cc2c(Cl)cc(F)cc2[nH]1)N1CCc2[nH]nc(C3CCCO3)c2C1 (stereo not drawn) [Example 341, 4-chloro-6-fluoro-2-[3-(oxolan-2-yl)-1H,4H,5H,6H,7H-pyrazolo[4,3-c]pyridine-5-carbonyl]-1H-indole] | < 5 µM | < 1 µM | > 10 µM
Cc1cc(F)cc2[nH]c(C(=O)N3CCc4[nH]nc(C5CCCO5)c4C3)cc12 (stereo not drawn) [Example 342, 6-fluoro-4-methyl-2-[3-(oxolan-2-yl)-1H,4H,5H,6H,7H-pyrazolo[4,3-c]pyridine-5-carbonyl]-1H-indole] | < 5 µM | < 1 µM | > 10 µM
O=C(c1cc2ccccc2[nH]1)N1CCc2[nH]nc(C34CC(C3)C4)c2C1 [Example 343, 2-(3-{bicyclo[1.1.1]pentan-1-yl}-1H,4H,5H,6H,7H-pyrazolo[4,3-c]pyridine-5-carbonyl)-1H-indole] | < 5 µM | < 1 µM | > 10 µM
O=C(c1cc2ccccc2[nH]1)N1CCc2[nH]nc(C3CCCO3)c2C1 (stereo not drawn) [Example 344, 2-[3-(oxolan-2-yl)-1H,4H,5H,6H,7H-pyrazolo[4,3-c]pyridine-5-carbonyl]-1H-indole] | < 5 µM | < 1 µM | > 10 µM
CN(C(=O)c1n[nH]c2c1CN(C(=O)c1cc3ccccc3[nH]1)CC2)C1(COCC(F)(F)F)CC1 [Example 359, 5-(1H-indole-2-carbonyl)-N-methyl-N-{1-[(2,2,2-trifluoroethoxy)methyl]cyclopropyl}-1H,4H,5H,6H,7H-pyrazolo[4,3-c]pyridine-3-carboxamide] | < 5 µM | < 1 µM | > 10 µM
CN(C(=O)c1n[nH]c2c1CN(C(=O)c1cc3ccccc3[nH]1)CC2)C1(COCC(F)F)CC1 [Example 360, N-{1-[(2,2-difluoroethoxy)methyl]cyclopropyl}-5-(1H-indole-2-carbonyl)-N-methyl-1H,4H,5H,6H,7H-pyrazolo[4,3-c]pyridine-3-carboxamide] | < 5 µM | < 1 µM | > 10 µM
CN(C(=O)c1n[nH]c2c1CN(C(=O)c1cc3ccccc3[nH]1)CC2)C1(CC#N)CC1 [Example 361, N-[1-(cyanomethyl)cyclopropyl]-5-(1H-indole-2-carbonyl)-N-methyl-1H,4H,5H,6H,7H-pyrazolo[4,3-c]pyridine-3-carboxamide] | < 5 µM | 1 to 25 µM | > 10 µM
CCOCC1(N(C)C(=O)c2[nH]nc3c2CN(C(=O)c2cc4c(F)cc(F)cc4[nH]2)CC3)CC1 [Example 363, 5-(4,6-difluoro-1H-indole-2-carbonyl)-N-[1-(ethoxymethyl)cyclopropyl]-N-methyl-2H,4H,5H,6H,7H-pyrazolo[4,3-c]pyridine-3-carboxamide] | < 5 µM | < 1 µM | > 10 µM
CCOCC1(N(C)C(=O)c2[nH]nc3c2CN(C(=O)c2cc4c(Cl)c(F)ccc4[nH]2)CC3)CC1 [Example 364, 5-(4-chloro-5-fluoro-1H-indole-2-carbonyl)-N-[1-(ethoxymethyl)cyclopropyl]-N-methyl-2H,4H,5H,6H,7H-pyrazolo[4,3-c]pyridine-3-carboxamide] | < 5 µM | < 1 µM | > 10 µM
CCOCC1(N(C)C(=O)c2[nH]nc3c2CN(C(=O)c2cc4c(Cl)cc(F)cc4[nH]2)CC3)CC1 [Example 365, 5-(4-chloro-6-fluoro-1H-indole-2-carbonyl)-N-[1-(ethoxymethyl)cyclopropyl]-N-methyl-2H,4H,5H,6H,7H-pyrazolo[4,3-c]pyridine-3-carboxamide] | < 5 µM | < 1 µM | > 10 µM
CCOCC1(N(C)C(=O)c2[nH]nc3c2CN(C(=O)c2cc4c(C)cc(F)cc4[nH]2)CC3)CC1 [Example 366, N-[1-(ethoxymethyl)cyclopropyl]-5-(6-fluoro-4-methyl-1H-indole-2-carbonyl)-N-methyl-2H,4H,5H,6H,7H-pyrazolo[4,3-c]pyridine-3-carboxamide] | < 5 µM | < 1 µM | > 10 µM
